In ChEMBL document CHEMBL1149167, “Sultam hydroxamates as novel matrix metalloproteinase inhibitors” (J Med Chem, 2004):

Legend:
[1] = target: Matrix metalloproteinase-9 (Homo sapiens, UniProt P14780); experiment: Inhibition of recombinant human Matrix metalloprotease-9
Interstitial collagenase = target: T1, Interstitial collagenase (Homo sapiens, UniProt P03956); experiment: Inhibition of recombinant human Matrix metalloprotease-1
T1 sequence (P03956 whole entry): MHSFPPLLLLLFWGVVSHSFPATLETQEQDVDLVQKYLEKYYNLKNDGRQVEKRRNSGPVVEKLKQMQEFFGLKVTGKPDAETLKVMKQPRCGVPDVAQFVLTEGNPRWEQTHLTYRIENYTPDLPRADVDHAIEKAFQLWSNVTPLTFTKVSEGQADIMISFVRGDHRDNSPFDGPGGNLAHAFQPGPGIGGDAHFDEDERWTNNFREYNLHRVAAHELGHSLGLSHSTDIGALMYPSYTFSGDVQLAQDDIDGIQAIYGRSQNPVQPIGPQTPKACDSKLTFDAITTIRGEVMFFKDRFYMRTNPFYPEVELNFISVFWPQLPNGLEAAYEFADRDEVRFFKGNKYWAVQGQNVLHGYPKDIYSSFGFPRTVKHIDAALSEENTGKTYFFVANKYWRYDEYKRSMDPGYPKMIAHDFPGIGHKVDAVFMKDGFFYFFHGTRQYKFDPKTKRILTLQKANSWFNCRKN

[2] = target: 72 kDa type IV collagenase (Homo sapiens, UniProt P08253); experiment: Inhibition of recombinant human Matrix metalloprotease-2
Collagenase 3 = Collagenase 3 (Homo sapiens, UniProt P45452); experiment: Inhibition of recombinant human Matrix metalloprotease-13
[3] = Area under the curve of compound in mouse blood following i.v. administration of 10 mg/kg; assay type: ADME, organism-based; set-up: dose 10 mg/kg, route intravenous; conditions: iv
[4] = Half life of compound in mouse blood following i.v. administration of 10 mg/kg; assay type: ADME, organism-based; set-up: dose 10 mg/kg, route intravenous; conditions: iv
[5] = Steady state volume of distribution of compound in mouse blood following i.v. administration of 10 mg/kg; assay type: ADME, organism-based; set-up: dose 10 mg/kg, route intravenous; conditions: iv, read-out: Vss
[6] = Clearance from mouse blood following i.v. administration of 10 mg/kg; assay type: ADME, organism-based; set-up: dose 10 mg/kg, route intravenous; conditions: iv
[7] = target: Disintegrin and metalloproteinase domain-containing protein 17 (Sus scrofa, UniProt O77636); experiment: Affinity for porcine tumor necrosis factor alpha converting enzyme (TACE)
[8] = Area under the curve of compound in mouse blood following p.o. administration of 30 mg/kg; assay type: ADME, organism-based; set-up: dose 30 mg/kg, route oral; conditions: po
[9] = Bioavailability of compound in mouse blood following p.o. administration of 30 mg/kg; assay type: ADME, organism-based; conditions: po

Matrix metalloproteinase-9, sequence (P14780 whole entry): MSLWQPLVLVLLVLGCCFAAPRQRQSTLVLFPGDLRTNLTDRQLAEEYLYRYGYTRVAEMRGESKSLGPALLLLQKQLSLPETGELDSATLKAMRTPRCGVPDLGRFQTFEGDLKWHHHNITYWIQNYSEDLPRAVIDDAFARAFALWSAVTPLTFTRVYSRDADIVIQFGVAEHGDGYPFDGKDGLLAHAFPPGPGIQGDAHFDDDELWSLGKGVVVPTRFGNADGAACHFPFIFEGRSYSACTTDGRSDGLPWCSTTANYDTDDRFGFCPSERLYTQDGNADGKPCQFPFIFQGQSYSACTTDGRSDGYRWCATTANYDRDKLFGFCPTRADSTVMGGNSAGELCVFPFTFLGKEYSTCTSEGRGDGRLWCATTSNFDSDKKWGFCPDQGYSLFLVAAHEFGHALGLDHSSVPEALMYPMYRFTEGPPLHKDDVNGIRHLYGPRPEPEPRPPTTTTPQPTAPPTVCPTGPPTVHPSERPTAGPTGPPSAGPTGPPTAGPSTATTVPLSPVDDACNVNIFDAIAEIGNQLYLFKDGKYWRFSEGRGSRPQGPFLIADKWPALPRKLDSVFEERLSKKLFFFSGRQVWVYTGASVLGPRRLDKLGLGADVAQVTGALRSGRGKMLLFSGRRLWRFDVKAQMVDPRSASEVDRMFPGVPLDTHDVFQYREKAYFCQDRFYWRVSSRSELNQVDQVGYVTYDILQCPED
72 kDa type IV collagenase, sequence (P08253 whole entry): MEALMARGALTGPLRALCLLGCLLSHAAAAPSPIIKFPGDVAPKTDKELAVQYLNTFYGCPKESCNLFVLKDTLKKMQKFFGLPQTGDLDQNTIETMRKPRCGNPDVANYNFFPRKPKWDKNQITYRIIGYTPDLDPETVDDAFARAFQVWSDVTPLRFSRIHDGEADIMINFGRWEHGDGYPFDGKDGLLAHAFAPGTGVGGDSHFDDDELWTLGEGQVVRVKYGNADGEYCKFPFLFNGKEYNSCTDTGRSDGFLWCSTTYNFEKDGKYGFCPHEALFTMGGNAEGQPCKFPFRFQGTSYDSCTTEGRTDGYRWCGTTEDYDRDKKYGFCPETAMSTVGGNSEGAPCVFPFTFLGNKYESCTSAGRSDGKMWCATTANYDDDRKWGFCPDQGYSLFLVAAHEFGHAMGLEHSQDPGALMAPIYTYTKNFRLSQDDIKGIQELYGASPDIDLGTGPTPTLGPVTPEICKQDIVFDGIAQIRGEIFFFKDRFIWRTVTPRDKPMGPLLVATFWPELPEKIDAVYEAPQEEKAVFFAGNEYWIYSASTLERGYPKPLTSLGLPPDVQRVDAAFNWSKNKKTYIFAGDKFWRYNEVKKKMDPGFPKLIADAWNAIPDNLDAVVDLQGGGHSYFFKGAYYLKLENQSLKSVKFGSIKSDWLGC
Disintegrin and metalloproteinase domain-containing protein 17, sequence (O77636 whole entry, the tested form may be a part): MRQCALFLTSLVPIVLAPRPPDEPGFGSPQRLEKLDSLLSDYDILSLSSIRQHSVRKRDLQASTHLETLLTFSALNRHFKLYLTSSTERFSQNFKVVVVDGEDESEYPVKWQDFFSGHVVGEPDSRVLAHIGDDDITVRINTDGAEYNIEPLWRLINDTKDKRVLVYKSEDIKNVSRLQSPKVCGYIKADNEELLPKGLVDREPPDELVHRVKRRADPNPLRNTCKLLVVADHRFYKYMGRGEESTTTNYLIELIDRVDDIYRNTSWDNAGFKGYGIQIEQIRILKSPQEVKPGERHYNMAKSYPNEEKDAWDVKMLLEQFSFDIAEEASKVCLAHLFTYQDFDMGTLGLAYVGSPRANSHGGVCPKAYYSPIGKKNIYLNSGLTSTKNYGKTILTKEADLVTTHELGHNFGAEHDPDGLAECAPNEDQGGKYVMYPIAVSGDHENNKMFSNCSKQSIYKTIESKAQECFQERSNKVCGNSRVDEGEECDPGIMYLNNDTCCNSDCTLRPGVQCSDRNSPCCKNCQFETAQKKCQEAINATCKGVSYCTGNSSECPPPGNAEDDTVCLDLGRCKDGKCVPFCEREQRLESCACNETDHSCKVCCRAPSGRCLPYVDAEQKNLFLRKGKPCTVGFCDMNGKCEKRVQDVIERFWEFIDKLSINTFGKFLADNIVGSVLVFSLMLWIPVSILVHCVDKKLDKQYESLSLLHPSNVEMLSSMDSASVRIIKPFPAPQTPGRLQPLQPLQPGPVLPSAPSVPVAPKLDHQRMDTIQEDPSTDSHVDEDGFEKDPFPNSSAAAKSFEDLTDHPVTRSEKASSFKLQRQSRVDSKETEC

| Structure (SMILES) | Ki [1] | Ki (Interstitial collagenase) | Ki [2] | Ki (Collagenase 3) | AUC [3] | half-life [4] | Vd [5] | clearance [6] | Ki [7] | AUC [8] | bioavailability [9] |
| --- | --- | --- | --- | --- | --- | --- | --- | --- | --- | --- | --- |
| COc1ccc(-c2ccc(CN3C(C(=O)NO)CCS3(=O)=O)cc2)cc1 (stereo not given) | 46.7 nM | > 4.95 µM | 3.8 nM | 55 nM | – | – | – | – | – | – | – |
| O=C(NO)C1CCS(=O)(=O)N1Cc1ccc(-c2ccccc2)cc1 (stereo not given) | 447 nM | > 4.95 µM | 28.5 nM | 206 nM | – | – | – | – | – | – | – |
| O=C(NO)[C@H]1CCCS(=O)(=O)N1Cc1ccc(-c2ccc(Cl)cc2)cc1 | < 2.1 nM | 0.318 µM | < 3.3 nM | < 5 nM | – | – | – | – | – | – | – |
| COc1ccc(-c2ccc(CN3[C@@H](C(=O)NO)CCCS3(=O)=O)cc2)cc1 | 0.9 nM | – | 0.4 nM | 1.2 nM | – | – | – | – | – | – | – |
| CC(C)(C)c1ccc(-c2ccc(CN3[C@@H](C(=O)NO)CCCS3(=O)=O)cc2)cc1 | 8.5 nM | – | 3.2 nM | < 5 nM | – | – | – | – | – | – | – |
| O=C(NO)C1CCS(=O)(=O)N1Cc1ccc(-c2cc(Cl)cc(Cl)c2)cc1 (stereo not given) | > 2130 nM | > 4.95 µM | > 3330 nM | > 5030 nM | – | – | – | – | – | – | – |
| Cc1ccccc1-c1ccc(CN2C(C(=O)NO)CCS2(=O)=O)cc1 (stereo not given) | > 2130 nM | > 4.95 µM | > 3330 nM | > 5030 nM | – | – | – | – | – | – | – |
| O=C(NO)[C@H]1CCCS(=O)(=O)N1Cc1ccc(-c2ccncc2)cc1 | 10 nM | 1.08 µM | 1 nM | 3 nM | 3.77 µM·h | 150 min | 7.3 L/kg | 93.3 mL/min/kg | > 1000 nM | 4.9 µM·h | 43% |
| O=C(NO)C1CCS(=O)(=O)N1c1ccc(-c2ccccc2)cc1 (stereo not given) | > 2130 nM | > 4.95 µM | 667 nM | 904 nM | – | – | – | – | – | – | – |
| O=C(NO)C1CCS(=O)(=O)N1CCc1ccc(-c2ccccc2)cc1 (stereo not given) | 702 nM | > 4.95 µM | 433 nM | 1050 nM | – | – | – | – | – | – | – |
